The values that follow come from patent publication US20230338337A1, “BIOMARKERS FOR CANCER THERAPY USING MDM2 ANTAGONISTS” (OTSUKA PHARMACEUTICAL CO., LTD., priority 2019, published 2023).

One assay concerns SJSA-1. Nature of the assay: Protocol B: CellTiter-Glo cell viability assay. The note with it: Protocol B; for IC50: read-out: SJSA1 IC50 (μM) (Protocol B); for SJSA1 (Protocol B) % inhibition at 10: at 10 μM. In general terms: Cellular ATP, detected with luciferase, serves as a proxy for viable cell number.
In assay [1] the target is MDM2-p53 interaction (in vitro translated MDM2) (Homo sapiens (Human), UniProt Q00987). Nature of the assay: MDM2-p53 interaction 96-well plate binding assay (ELISA). To be noted: for MDM2 % inhibition at 0.0010: at 0.0010 μM. Background: In an ELISA, binding on a coated surface is turned into a signal by an enzyme label.

A word on the IC50: it is the concentration that gives 50% inhibition.

Chain of MDM2-p53 interaction (in vitro translated MDM2) (Q00987 whole entry): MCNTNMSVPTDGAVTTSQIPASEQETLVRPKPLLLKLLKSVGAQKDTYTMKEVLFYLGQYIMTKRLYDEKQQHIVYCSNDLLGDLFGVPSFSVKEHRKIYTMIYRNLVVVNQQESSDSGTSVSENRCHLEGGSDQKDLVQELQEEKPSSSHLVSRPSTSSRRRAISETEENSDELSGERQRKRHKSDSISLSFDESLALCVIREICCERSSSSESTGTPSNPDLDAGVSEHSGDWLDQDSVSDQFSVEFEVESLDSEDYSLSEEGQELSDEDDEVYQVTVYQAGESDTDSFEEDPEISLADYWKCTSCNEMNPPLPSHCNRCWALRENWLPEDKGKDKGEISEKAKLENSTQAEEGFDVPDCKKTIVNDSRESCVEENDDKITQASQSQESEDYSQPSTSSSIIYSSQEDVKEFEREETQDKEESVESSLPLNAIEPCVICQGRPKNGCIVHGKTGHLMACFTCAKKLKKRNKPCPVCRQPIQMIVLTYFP

For the substance “6-{[(1R)-1-(4-chlorophenyl)-7-fluoro-5-[1-hydroxy-1-(1-methyl-1H-imidazol-4-yl)butyl]-3-oxo-1-[(3S)-oxolan-3-yloxy]-2,3-dihydro-1H-isoindol-2-yl]methyl}pyridine-3-carbonitrile [Example 472]”, the concentration for half-maximal inhibition (IC50) in the assay with SJSA-1 amounted to 0.39 µM. In addition, in assay [1] (at 0.0030 μM), the “MDM2 % inhibition at 0.0030” value stood at 48%@0.0030.
For the substance “2-{[(1R)-1-(4-chlorophenyl)-7-fluoro-5-[(1S)-1-(4-fluorooxan-4-yl)-1-hydroxypropyl]-3-oxo-1-[(3S)-oxolan-3-yloxy]-2,3-dihydro-1H-isoindol-2-yl]methyl}pyrimidine-5-carbonitrile [Example 508]”, the “SJSA1 (Protocol B) % inhibition at 10” value in the assay with SJSA-1 was determined as 11% at 10. Also, the “MDM2 % inhibition at 0.10” value in assay [1] (at 0.10 μM) came out at 17%@0.10.
Consider “6-{[(1R)-1-(4-chlorophenyl)-7-fluoro-5-[1-(4-fluorooxan-4-yl)-1-hydroxypropyl]-1-(2-hydroxyethoxy)-3-oxo-2,3-dihydro-1H-isoindol-2-yl]methyl}pyridine-3-carbonitrile [Example 500]”, for which the “SJSA1 (Protocol B) % inhibition at 10” value in the assay on SJSA-1 came to 16% at 10. For the same substance, the “MDM2 % inhibition at 0.10” value in assay [1] (at 0.10 μM) came to 21%@0.10.
Regarding “1-({[(1R)-1-(4-chlorophenyl)-2-[(5-chloropyrimidin-2-yl)methyl]-7-fluoro-5-[1-hydroxy-1-(1-methyl-1H-imidazol-4-yl)propyl]-3-oxo-2,3-dihydro-1H-isoindol-1-yl]oxy}methyl)cyclopropane-1-carboxamide [Example 485]”, the IC50 in the assay with SJSA-1 was 4.2 µM. In assay [1] (at 0.10 μM), the “MDM2 % inhibition at 0.10” value is recorded as 58%@0.10.
In the case of “(3R)-3-(4-chlorophenyl)-4-fluoro-6-[1-hydroxy-1-(1-methyl-1H-pyrazol-4-yl)ethyl]-3-[(1-hydroxycyclopropyl)methoxy]-2-[(5-methoxypyridin-2-yl)methyl]-2,3-dihydro-1H-isoindol-1-one [Example 347]”, the IC50 in the assay with SJSA-1 is 1.7 µM. The “MDM2 % at concentration” value in assay [1] (at 0.10 μM) worked out at 63%@0.10.
For the substance “(3R)-3-(4-chlorophenyl)-2-[(3,5-difluoropyridin-2-yl)methyl]-4-fluoro-6-[1-hydroxy-1-(1-methyl-1H-pyrazol-4-yl)ethyl]-3-[(1-hydroxycyclopropyl)methoxy]-2,3-dihydro-1H-isoindol-1-one [Example 350]”, the IC50 in the assay with SJSA-1 amounted to 0.51 µM. Also, the “MDM2 % at concentration” value in assay [1] (at 0.030 μM) turned out to be 54%@0.030.
Consider “(3R)-3-(4-chlorophenyl)-2-[(5-chloropyrimidin-2-yl)methyl]-4-fluoro-3-[(3-fluorooxetan-3-yl)methoxy]-6-[2-hydroxy-1-(piperazin-1-yl)butan-2-yl]-2,3-dihydro-1H-isoindol-1-one [Example 538]”, for which the IC50 with SJSA-1 was 2.2 µM. For the same substance, the “MDM2 % inhibition at 0.030” value in assay [1] (at 0.030 μM) came to 44%@0.030.
“6-{[(1R)-1-(4-chlorophenyl)-7-fluoro-5-[1-(4-fluorooxan-4-yl)-1-hydroxypropyl]-1-(2-hydroxyethoxy)-3-oxo-2,3-dihydro-1H-isoindol-2-yl]methyl}pyridine-3-carbonitrile [Example 499]”: the IC50 in the assay with SJSA-1 came out at 0.053 µM. In addition, in assay [1], the “MDM2 % inhibition at 0.0010” value is 68%@0.0010.
“(3R)-3-(4-chlorophenyl)-2-[(5-chloropyridin-2-yl)methyl]-4-fluoro-6-[1-hydroxy-1-(1-methylpiperidin-4-yl)ethyl]-3-{[1-(hydroxymethyl)cyclopropyl]methoxy}-2,3-dihydro-1H-isoindol-1-one [Example 555]”: the concentration for half-maximal inhibition (IC50) in the assay with SJSA-1 was found to be 0.079 µM. The “MDM2 % inhibition at 0.0010” value in assay [1] was 55%@0.0010.
Consider “6-{[(1R)-1-(4-chlorophenyl)-7-fluoro-5-{1-hydroxy-1-[trans-4-hydroxycyclohexyl]propyl}-3-oxo-1-[cis-3-hydroxycyclobutoxy]-2,3-dihydro-1H-isoindol-2-yl]methyl}pyridine-3-carbonitrile [Example 520]”, for which the IC50 in the assay on SJSA-1 was 3.9 µM. In addition, the “MDM2 % inhibition at 0.030” value in assay [1] (at 0.030 μM) worked out at 32%@0.030.
